Measured values reported in US20070249670A1, “Glycogen Phosphorylase Inhibitor Compounds and Pharmaceutical Compositions Thereof” (SMITHKLINE BEECHAM CORPORATION, priority 2004, published 2007).
pIC50: −log10 of the molar value.

Target: T1, human liver glycogen phosphorylase a (HLGPa) (Homo sapiens, UniProt P06737)
T1 construct: creating a full-length cDNA fused at the 5′ end to codons for methionine-glycine-alanine-histidine; 6xHis tag (leader Met-Gly-Ala-His6-Gly-Gly) (N); made in house; host or cells: E. coli (bacterial expression plasmid pTXK1007LTev)
T1 sequence (P06737 2-847 limits assumed): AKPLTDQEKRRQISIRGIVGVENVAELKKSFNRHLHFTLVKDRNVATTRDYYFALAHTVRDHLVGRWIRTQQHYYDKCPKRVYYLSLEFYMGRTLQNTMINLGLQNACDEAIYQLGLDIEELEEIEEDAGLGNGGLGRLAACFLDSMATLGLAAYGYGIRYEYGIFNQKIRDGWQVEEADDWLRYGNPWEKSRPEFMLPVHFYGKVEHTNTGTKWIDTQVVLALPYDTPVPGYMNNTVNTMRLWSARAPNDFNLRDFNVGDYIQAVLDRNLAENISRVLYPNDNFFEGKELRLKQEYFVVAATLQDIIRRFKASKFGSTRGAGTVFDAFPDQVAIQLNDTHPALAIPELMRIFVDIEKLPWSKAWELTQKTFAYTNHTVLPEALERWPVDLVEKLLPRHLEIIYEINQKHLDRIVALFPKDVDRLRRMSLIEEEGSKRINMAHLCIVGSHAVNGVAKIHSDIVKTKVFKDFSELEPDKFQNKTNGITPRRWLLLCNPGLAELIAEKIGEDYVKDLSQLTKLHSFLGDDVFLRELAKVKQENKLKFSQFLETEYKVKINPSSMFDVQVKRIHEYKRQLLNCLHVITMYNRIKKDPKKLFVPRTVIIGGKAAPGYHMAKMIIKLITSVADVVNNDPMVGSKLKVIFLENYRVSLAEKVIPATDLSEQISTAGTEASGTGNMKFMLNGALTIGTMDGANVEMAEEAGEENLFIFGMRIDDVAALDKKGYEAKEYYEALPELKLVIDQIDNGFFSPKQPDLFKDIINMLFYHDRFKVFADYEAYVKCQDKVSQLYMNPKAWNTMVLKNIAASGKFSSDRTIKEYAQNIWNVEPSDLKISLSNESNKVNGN
Test: Human liver glycogen phosphorylase a enzymatic activity assay (coupled, fluorescent resorufin readout, with and without 10 mM glucose)
Assay type: biochemical
Settings: human liver glycogen phosphorylase a enzymatic activity assay

| pIC50 | Structure (SMILES) |
| --- | --- |
| 7.89 | O=C(Nc1cc2ccccc2cc1C(=O)NC(C(=O)O)[C@H]1CC[C@H](C(F)(F)F)CC1)Nc1c(Cl)cc(OC(F)(F)F)cc1Cl (stereo partly drawn) [Example 466, {[(3-{[({2,6-dichloro-4-[(trifluoromethyl)oxy]phenyl}amino)carbonyl]amino}-2-naphthalenyl)carbonyl]amino}[trans-4-(trifluoromethyl)cyclohexyl]acetic acid] |
| 7.46 | O=C(Nc1cc2ccccc2cc1C(=O)NC(C(=O)O)[C@H]1CC[C@@H](C(F)(F)F)CC1)Nc1c(Cl)cc(OC(F)(F)F)cc1Cl (stereo partly drawn) [Example 467, {[(3-{[({2,6-dichloro-4-[(trifluoromethyl)oxy]phenyl}amino)carbonyl]amino}-2-naphthalenyl)carbonyl]amino}[cis-4-(trifluoromethyl)cyclohexyl]acetic acid] |
| 7.82 | O=C(Nc1cc2ccccc2cc1C(=O)NC(C(=O)O)C1CCOCC1)Nc1c(Cl)cc(OC(F)(F)F)cc1Cl (stereo not shown) [Example 468, {[(3-{[({2,6-dichloro-4-[(trifluoromethyl)oxy]phenyl}amino)carbonyl]amino}-2-naphthalenyl)carbonyl]amino}(tetrahydro-2H-pyran-4-yl)acetic acid] |
| 8.70 | CCCc1cc(C)c(NC(=O)Nc2cc3ccccc3cc2C(=O)N[C@H](C(=O)O)C2CCCCC2)c(C)c1 [Example 470, (2S)-cyclohexyl({[3-({[(2,6-dimethyl-4-propylphenyl)amino]carbonyl}amino)-2-naphthalenyl]carbonyl}amino)ethanoic acid] |
| 8.52 | C#CCc1cc(C)c(NC(=O)Nc2cc3ccccc3cc2C(=O)N[C@H](C(=O)O)C2CCCCC2)c(C)c1 [Example 471, (2S)-cyclohexyl[({3-[({[2,6-dimethyl-4-(2-propyn-1-yl)phenyl]amino}carbonyl)amino]-2-naphthalenyl}carbonyl)amino]ethanoic acid] |
| 6.80 | Cc1cc(C)c(NC(=O)Nc2cc(F)ccc2C(=O)N[C@@](C)(C(=O)O)C2CCCCC2)c(C)c1 [Example 472, 2-cyclohexyl-N-{[4-fluoro-2-({[(2,4,6-trimethylphenyl)amino]carbonyl}amino)phenyl]carbonyl}-L-alanine] |
| 9.00 | CCCOc1cc(C)c(NC(=O)Nc2cc3ccccc3cc2C(=O)N[C@H](C(=O)O)C2CCCCC2)c(C)c1 [Example 473, (2S)-cyclohexyl[({3-[({[2,6-dimethyl-4-(propyloxy)phenyl]amino}carbonyl)amino]-2-naphthalenyl}carbonyl)amino]ethanoic acid] |
| 6.84 | C[C@](NC(=O)c1ccc(F)cc1NC(=O)Nc1c(Cl)cc(OC(F)(F)F)cc1Cl)(C(=O)O)C1CCCCC1 [Example 474, 2-cyclohexyl-N-[(2-{[({2,6-dichloro-4-[(trifluoromethyl)oxy]phenyl}amino)carbonyl]amino}-4-fluorophenyl)carbonyl]-L-alanine] |
| 7.29 | CCc1cc(C)c(NC(=O)Nc2cc(F)ccc2C(=O)N[C@H](C(=O)O)C2CCCCC2)c(C)c1 [Example 475, (2S)-cyclohexyl({[2-({[(4-ethyl-2,6-dimethylphenyl)amino]carbonyl}amino)-4-fluorophenyl]carbonyl}amino)ethanoic acid] |
| 7.52 | C=CCc1cc(C)c(NC(=O)Nc2cc(F)ccc2C(=O)N[C@H](C(=O)O)C2CCCCC2)c(C)c1 [Example 476, (2S)-cyclohexyl[({2-[({[2,6-dimethyl-4-(2-propen-1-yl)phenyl]amino}carbonyl)amino]-4-fluorophenyl}carbonyl)amino]ethanoic acid] |
| 8.10 | CCCc1cc(C)c(NC(=O)Nc2cc(F)ccc2C(=O)N[C@H](C(=O)O)C2CCCCC2)c(C)c1 [Example 477, (2S)-cyclohexyl({[2-({[(2,6-dimethyl-4-propylphenyl)amino]carbonyl}amino)-4-fluorophenyl]carbonyl}amino)ethanoic acid] |
| 8.52 | CCCCCc1cc(C)c(NC(=O)Nc2cc(F)ccc2C(=O)N[C@H](C(=O)O)C2CCCCC2)c(C)c1 [Example 478, (2S)-cyclohexyl({[2-({[(2,6-dimethyl-4-pentylphenyl)amino]carbonyl}amino)-4-fluorophenyl]carbonyl}amino)ethanoic acid] |
| 8.40 | CCCc1cc(C)c(NC(=O)Nc2cc(F)ccc2C(=O)N[C@@](C)(C(=O)O)C2CCCCC2)c(C)c1 [Example 479, 2-cyclohexyl-N-{[2-({[(2,6-dimethyl-4-propylphenyl)amino]carbonyl}amino)-4-fluorophenyl]carbonyl}-L-alanine] |
| 7.70 | CCCCc1cc(C)c(NC(=O)Nc2cc(F)ccc2C(=O)N[C@H](C(=O)O)C2CCCCC2)c(C)c1 [Example 480, (2S)-({[2-({[(4-butyl-2,6-dimethylphenyl)amino]carbonyl}amino)-4-fluorophenyl]carbonyl}amino)(cyclohexyl)ethanoic acid] |
| 9.40 | CCCc1cc(C)c(NC(=O)Nc2cc(-c3ccc(F)c(F)c3)ccc2C(=O)N[C@H](C(=O)O)[C@@H](C)OC(C)(C)C)c(C)c1 [Example 481, O-(1,1-dimethylethyl)-N-{[3-({[(2,6-dimethyl-4-propylphenyl)amino]carbonyl}amino)-3′,4′-difluoro-4-biphenylyl]carbonyl}-L-threonine] |
| 8.30 | Cc1cc(CC2CC2)cc(C)c1NC(=O)Nc1cc(F)ccc1C(=O)N[C@H](C(=O)O)C1CCCCC1 [Example 482, (2S)-cyclohexyl[({2-[({[4-(cyclopropylmethyl)-2,6-dimethylphenyl]amino}carbonyl)amino]-4-fluorophenyl}carbonyl)amino]ethanoic acid] |
| 9.00 | Cc1cc(CC2CC2)cc(C)c1NC(=O)Nc1cc(-c2ccc(F)c(F)c2)ccc1C(=O)N[C@H](C(=O)O)[C@@H](C)OC(C)(C)C [Example 483, N-({3-[({[4-(cyclopropylmethyl)-2,6-dimethylphenyl]amino}carbonyl)amino]-3′,4′-difluoro-4-biphenylyl}carbonyl)-O-(1,1-dimethylethyl)-L-threonine] |
| 5.30 | COc1ccc(-c2nc(NC(=O)Nc3c(Cl)cc(Cl)cc3Cl)c(C(=O)N[C@H](C(=O)O)C3CCCCC3)s2)cc1 [Example 484, (2S)-Cyclohexyl({[2-[4-(methyloxy)phenyl]-4-({[(2,4,6-trichlorophenyl)amino]carbonyl}amino)-1,3-thiazol-5-yl]carbonyl}amino)ethanoic acid] |
| 5.75 | COc1ccc(-c2nc(C(=O)N[C@H](C(=O)O)C3CCCCC3)c(NC(=O)Nc3c(C)cccc3C(C)C)s2)cc1 [Example 486] |
| 6.13 | COc1ccc(-c2nc(C(=O)N[C@H](C(=O)O)C3CCCCC3)c(NC(=O)Nc3c(Cl)cccc3Cl)s2)cc1 [Example 487, (2S)-Cyclohexyl[({5-({[(2,6-dichlorophenyl)amino]carbonyl}amino)-2-[4-(methyloxy)phenyl]-1,3-thiazol-4-yl}carbonyl)amino]ethanoic acid] |
| 5.08 | COc1ccc(-c2nc(C(=O)O)c(NC(=O)Nc3c(C)cc(C)cc3C)s2)cc1 [Example 488, 2-[4-(Methyloxy)phenyl]-5-({[(2,4,6-trimethylphenyl)amino]carbonyl}amino)-1,3-thiazole-4-carboxylic acid] |
| 7.47 | COc1ccc(-c2nc(C(=O)NC3(C(=O)O)CCCCC3)c(NC(=O)Nc3c(C)cc(C)cc3C)s2)cc1 [Example 489, 1-({[2-[4-(Methyloxy)phenyl]-5-({[(2,4,6-trimethylphenyl)amino]carbonyl}amino)-1,3-thiazol-4-yl]carbonyl}amino)cyclohexanecarboxylic acid] |
